Bridge positions count the residues as written; N and C are the ends. Square brackets hold non-standard residues; d marks the D form. Peptide text beside a SMILES is read from it. * marks the point of attachment. Ala(4-thiazolyl) = N[C@@H](Cc1cscn1)C(=O)O; Ala(2-furyl) = N[C@@H](Cc1ccco1)C(=O)O; Orn(iPr) = CC(C)NCCC[C@H](N)C(=O)O; Dab(iPr) = CC(C)NCC[C@H](N)C(=O)O; 2Thi = N[C@@H](Cc1cccs1)C(=O)O; 3Thi = N[C@@H](Cc1ccsc1)C(=O)O; Aad = N[C@@H](CCCC(=O)O)C(=O)O; Orn = NCCC[C@H](N)C(=O)O; Dab = NCC[C@H](N)C(=O)O; NHCH2CH2OH = OCCN*; X4 = OCCOCCN*; NHOH = ON*
molecular target: T1, human oxytocin (hOT) receptor (Homo sapiens, UniProt P30559); experiment: luciferase-based transcriptional reporter assay expressing the human oxytocin (hOT) receptor, for selectivity; format: cell-based; settings: not given
T1 construct: expressed in transfected cells
T1 sequence (P30559 1-389): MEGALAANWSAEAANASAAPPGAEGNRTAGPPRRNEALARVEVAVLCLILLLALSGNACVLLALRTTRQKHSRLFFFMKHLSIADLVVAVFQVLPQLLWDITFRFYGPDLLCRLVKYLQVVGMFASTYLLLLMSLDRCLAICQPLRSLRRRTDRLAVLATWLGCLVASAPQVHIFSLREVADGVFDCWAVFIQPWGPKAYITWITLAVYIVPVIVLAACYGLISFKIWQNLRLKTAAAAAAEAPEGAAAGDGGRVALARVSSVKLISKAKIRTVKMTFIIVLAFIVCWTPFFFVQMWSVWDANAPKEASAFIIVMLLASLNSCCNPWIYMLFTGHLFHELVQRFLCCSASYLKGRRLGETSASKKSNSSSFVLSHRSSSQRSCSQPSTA
Method: Agonist activity of compounds on the hV1a receptor was determined in a transcriptional reporter assay by transiently transfecting a hV1a receptor expression DNA into HEK-293 cells in concert with a reporter DNA containing intracellular calcium responsive promoter elements regulating expression of firefly luciferase. See Boss, V., Talpade, D. J., Murphy, T. J. J. Biol. Chem. 1996, May 3; 271(18), 10429-10432 for further guidance on this assay. […] To determine selectivity, compounds were tested in luciferase-based transcriptional reporter assays expressing the human oxytocin (hOT) receptor. Assays for other receptors (hV2, hV1b, rat V1a and rat V2) were also conducted.
The EC50 value given is the geometric mean expressed in nanomol/L (nM). Selectivity values are given as EC50 ratios.

Structure (SMILES)	selectivity hOT/hV1a (class symbol)
CC[C@H](C)[C@@H]1NC(=O)[C@H](Cc2ccccc2)NC(=O)[C@@H](N)CSSC[C@@H](C(=O)N2CCC[C@H]2C(=O)N[C@@H](CCN)C(=O)NCC(N)=O)NC(=O)[C@H](CC(N)=O)NC(=O)[C@H](CCCC(N)=O)NC1=O [Compound 11] (H-CFI[Aad](NH2)NCP[Dab]G-NH2; disulfide 1-6)	+ (key: +: selective hV1a receptor agonist; EC50 hOT/hV1a ratio not determined due to very low agonist efficacy (<30% compared to AVP) at the hOT receptor)

same assay, conditions: agonist efficacy at the hOT receptor compared to AVP; ratio not determined

Structure (SMILES)	selectivity hOT/hV1a (class symbol)
CC[C@H](C)[C@@H]1NC(=O)[C@H](Cc2ccccc2)NC(=O)[C@@H](N)CSSC[C@@H](C(=O)N2CCC[C@H]2C(=O)N[C@@H](CCCN)C(=O)NCC(N)=O)NC(=O)[C@H](CC(N)=O)NC(=O)[C@H](CC(=O)NCCO)NC1=O [Compound 23] (H-CFID(NHCH2CH2OH)NCP[Orn]G-NH2; disulfide 1-6; N-terminus and C-terminus assumed)	+ (selective hV1a receptor agonist; EC50 hOT/hV1a ratio not determined due to very low agonist efficacy (<30% compared to AVP) at the hOT receptor)
CC[C@H](C)[C@@H]1NC(=O)[C@H](Cc2ccccc2)NC(=O)[C@@H](N)CSSC[C@@H](C(=O)N2CCC[C@H]2C(=O)N[C@@H](CCCN)C(=O)NCC(N)=O)NC(=O)[C@H](CC(N)=O)NC(=O)[C@H](CC(N)=O)NC1=O [Compound 30] (H-CFINNCP[Orn]G-NH2; disulfide 1-6; N-terminus and C-terminus assumed)	+ (selective hV1a receptor agonist; EC50 hOT/hV1a ratio not determined due to very low agonist efficacy (<30% compared to AVP) at the hOT receptor)
NCCCC[C@H](NC(=O)[C@@H]1CCCN1C(=O)[C@@H]1CSSC[C@H](NC(=O)CNC(=O)CNC(=O)CN)C(=O)N[C@@H](Cc2ccc(O)cc2)C(=O)N[C@@H](Cc2ccccc2)C(=O)N[C@@H](CCC(N)=O)C(=O)N[C@@H](CC(N)=O)C(=O)N1)C(=O)NCC(N)=O [terlipressin, reference compound] (H-GGGCYFQNCPKG-NH2; disulfide 4-9)	+ (selective hV1a receptor agonist; EC50 hOT/hV1a ratio not determined due to very low agonist efficacy (<30% compared to AVP) at the hOT receptor)
CC[C@H](C)[C@@H]1NC(=O)[C@H](Cc2ccco2)NC(=O)[C@@H](N)CSSC[C@@H](C(=O)N2CCC[C@H]2C(=O)N[C@@H](CCN)C(=O)NCC(N)=O)NC(=O)[C@H](CC(N)=O)NC(=O)[C@H](CC(N)=O)NC1=O [Compound 44] (H-C[Ala(2-furyl)]INNCP[Dab]G-NH2; disulfide 1-6; N-terminus and C-terminus assumed)	+ (selective hV1a receptor agonist; EC50 hOT/hV1a ratio not determined due to very low agonist efficacy (<30% compared to AVP) at the hOT receptor)
CC[C@H](C)[C@@H]1NC(=O)[C@H](Cc2ccccc2)NC(=O)[C@@H](N)CSSC[C@@H](C(=O)N2CCC[C@H]2C(=O)N[C@@H](CCCN)C(=O)NCC(N)=O)NC(=O)[C@H](CC(N)=O)NC(=O)[C@H](CCC(=O)NO)NC1=O [Compound 16] (H-CFIE(NHOH)NCP[Orn]G-NH2; disulfide 1-6; N-terminus and C-terminus assumed)	+ (selective hV1a receptor agonist; EC50 hOT/hV1a ratio not determined due to very low agonist efficacy (<30% compared to AVP) at the hOT receptor)
CC[C@H](C)[C@@H]1NC(=O)[C@H](Cc2ccco2)NC(=O)[C@@H](N)CSSC[C@@H](C(=O)N2CCC[C@H]2C(=O)N[C@@H](CCCN)C(=O)NCC(N)=O)NC(=O)[C@H](CC(N)=O)NC(=O)[C@H](CC(N)=O)NC1=O [Compound 38] (H-C[Ala(2-furyl)]INNCP[Orn]G-NH2; disulfide 1-6; N-terminus and C-terminus assumed)	+ (selective hV1a receptor agonist; EC50 hOT/hV1a ratio not determined due to very low agonist efficacy (<30% compared to AVP) at the hOT receptor)
CC[C@H](C)[C@@H]1NC(=O)[C@H](Cc2ccsc2)NC(=O)[C@@H](N)CSSC[C@@H](C(=O)N2CCC[C@H]2C(=O)N[C@@H](CCN)C(=O)NCC(N)=O)NC(=O)[C@H](CC(N)=O)NC(=O)[C@H](CC(N)=O)NC1=O [Compound 37] (H-C[3Thi]INNCP[Dab]G-NH2; disulfide 1-6; N-terminus and C-terminus assumed)	+ (selective hV1a receptor agonist; EC50 hOT/hV1a ratio not determined due to very low agonist efficacy (<30% compared to AVP) at the hOT receptor)
CC[C@H](C)[C@@H]1NC(=O)[C@H](Cc2cscn2)NC(=O)[C@@H](N)CSSC[C@@H](C(=O)N2CCC[C@H]2C(=O)N[C@@H](CCN)C(=O)NCC(N)=O)NC(=O)[C@H](CC(N)=O)NC(=O)[C@H](CCC(N)=O)NC1=O [Compound 13] (H-C[Ala(4-thiazolyl)]IQNCP[Dab]G-NH2; disulfide 1-6; N-terminus and C-terminus assumed)	+ (selective hV1a receptor agonist; EC50 hOT/hV1a ratio not determined due to very low agonist efficacy (<30% compared to AVP) at the hOT receptor)
CC[C@H](C)[C@@H]1NC(=O)[C@H](Cc2cccs2)NC(=O)[C@@H](N)CSSC[C@@H](C(=O)N2CCC[C@H]2C(=O)N[C@@H](CCCNC(C)C)C(=O)NCC(N)=O)NC(=O)[C@H](CC(N)=O)NC(=O)[C@H](CC(N)=O)NC1=O [Compound 43] (H-C[2Thi]INNCP[Orn(iPr)]G-NH2; disulfide 1-6; N-terminus and C-terminus assumed)	+ (selective hV1a receptor agonist; EC50 hOT/hV1a ratio not determined due to very low agonist efficacy (<30% compared to AVP) at the hOT receptor)
CC[C@H](C)[C@@H]1NC(=O)[C@H](Cc2cccs2)NC(=O)[C@@H](N)CSSC[C@@H](C(=O)N2CCC[C@H]2C(=O)N[C@@H](CCCN)C(=O)NCC(N)=O)NC(=O)[C@H](CC(N)=O)NC(=O)[C@H](CC(N)=O)NC1=O [Compound 33] (H-C[2Thi]INNCP[Orn]G-NH2; disulfide 1-6; N-terminus and C-terminus assumed)	+ (selective hV1a receptor agonist; EC50 hOT/hV1a ratio not determined due to very low agonist efficacy (<30% compared to AVP) at the hOT receptor)
CC[C@H](C)[C@@H]1NC(=O)[C@H](Cc2ccccc2)NC(=O)[C@@H](N)CSSC[C@@H](C(=O)N2CCC[C@H]2C(=O)N[C@@H](CCCN)C(=O)NCC(N)=O)NC(=O)[C@H](CC(N)=O)NC(=O)[C@H](CC(=O)NCCOCCO)NC1=O [Compound 29] (H-CFID(X4)NCP[Orn]G-NH2; disulfide 1-6; N-terminus and C-terminus assumed)	+ (selective hV1a receptor agonist; EC50 hOT/hV1a ratio not determined due to very low agonist efficacy (<30% compared to AVP) at the hOT receptor)
CC[C@H](C)[C@@H]1NC(=O)[C@H](Cc2ccccc2)NC(=O)[C@@H](N)CSSC[C@@H](C(=O)N2CCC[C@H]2C(=O)N[C@@H](CCNC(C)C)C(=O)NCC(N)=O)NC(=O)[C@H](CC(N)=O)NC(=O)[C@H](CCCC(N)=O)NC1=O [Compound 22] (H-CFI[Aad](NH2)NCP[Dab(iPr)]G-NH2; disulfide 1-6; N-terminus and C-terminus assumed)	+ (selective hV1a receptor agonist; EC50 hOT/hV1a ratio not determined due to very low agonist efficacy (<30% compared to AVP) at the hOT receptor)
